Data as given in PMC3734177, “Design, Synthesis, Evaluation and Thermodynamics of 1-Substituted Pyridylimidazo[1,5-a]Pyridine Derivatives as Cysteine Protease Inhibitors” (PLoS ONE, 2013).
In brackets after ≈: the same amount, converted by molar mass. Several values for one entry are separate records, joined by “and”; a condition that tells them apart may be missing. Identical values can stand only once. Like-named read-outs stand apart in the source and are kept apart here.

What was measured:
[1] = molecular target: T1, papain (Carica papaya, UniProt P00784); assay: Cysteine protease inhibitory activity, papain with Bz-DL-Arg-pNA substrate; assay type: biochemical
T1 construct: To solutions of active papain (final concentration: 0.05 mM); purchased Sigma Chemical Co., St. Louis, MO, USA
T1 sequence (P00784 134-345): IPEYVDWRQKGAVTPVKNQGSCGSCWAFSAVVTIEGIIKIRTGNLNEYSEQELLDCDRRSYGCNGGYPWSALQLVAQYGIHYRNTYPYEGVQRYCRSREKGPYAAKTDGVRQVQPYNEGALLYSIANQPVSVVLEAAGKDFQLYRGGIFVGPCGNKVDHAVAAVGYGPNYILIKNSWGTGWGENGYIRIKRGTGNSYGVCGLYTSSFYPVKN
Protocol: The capacity of the 1-pyridylimidazo[1,5-a]pyridine derivatives to inhibit cysteine proteases was tested using papain as the model enzyme. The proteolytic activity of the reaction mixtures was determined using Bz-DL-Arg-pNA as the chromogenic substrate. To solutions of active papain (final concentration: 0.05 mM) were added concentrated solutions of the different derivatives to final concentrations of 0.2 mM. […] The same procedure was used at 32°C and 42°C for thermodynamics studies. The kinetic parameters for the substrate hydrolysis were determined by measuring the initial rate of enzymatic activity. The inhibition constant Ki was determined by Dixon method and also by the Lineweaver–Burk equation. The Km value was calculated from the double-reciprocal equation by fitting the data into the computer software Origin 6.1. The Lineweaver–Burk plot was used to determine the types of inhibition. For the kinetic analysis and rate constant determinations, the assays were carried out in triplicate, and the average value was considered throughout this work.

[2] = molecular target: T1, papain; assay: Thermodynamics analysis of papain inhibition (Van't Hoff); assay type: biochemical; conditions: Value at 37°C
Protocol: Free energy changes of inhibition of papain against 1- substituted pyridylimidazo[1,5-a] pyridine derivatives (ΔG) were determined by the equation, [drawing 1] (1)
Temperature dependence of the inhibition constants was used to determine the thermodynamic parameters. Changes in enthalpy (ΔH) were determined from the Van’t Hoff plots by using the equation, [drawing 2] (2)
Where ΔH is enthalpy change, R is gas constant, ΔS is entropy change and T is the absolute temperature. The entropy change was obtained from the equation, [drawing 3] (3)

[3] = tested on: Bacillus spp. (ATCC-14593); assay: MIC, micro dilution method; assay type: cell-based; conditions: ATCC14593; Bacillus sp.
Protocol: (§1) The disk diffusion method was used for the preliminary antibacterial evaluation of 1-pyridylimidazo[1,5-a]pyridine derivatives. The MIC50 of these derivatives, showing inhibition in the preliminary tests, were further determined by the microtitre plate technique using micro dilution method. In brief, the bacterial strains (S. aureus, P. vulgaris, Group D Streptococci, Bacillus sp., E. coli, P. aeruginosa and S. morganii)) were grown and diluted to 2×10^5 colony-forming units (CFU)/ml in sodium phosphate buffer (SPB) containing 0.03% Luria–Bertani (LB) broth. The synthesized derivatives were dissolved in DMSO and their serial dilution was performed in 50 µL of LB medium in 96-well microtitre plate to achieve the required concentrations (0.1–10 µg/ml) with bacterial inoculums (5×10^4 CFU per well). DMSO was taken as negative control and Ceftriaxone and clotrimazole were taken as positive control. After incubation at 37°C overnight, the MICs were taken as the lowest inhibitor concentration at which the bacterial growth was inhibited. The average of three values was calculated and that was the MIC for the test material and bacterial strain. […]

[4] = tested on: Escherichia coli (ATCC-25922); assay: MIC, micro dilution method; assay type: cell-based; conditions: ATCC25922, E. coli
Protocol: as §1

[5] = tested on: Proteus vulgaris (ATCC-29905); assay: MIC, micro dilution method; assay type: cell-based; conditions: ATCC29905, P. vulgaris
Protocol: as §1

[6] = tested on: Pseudomonas aeruginosa (ATCC-27853); assay: MIC, micro dilution method; assay type: cell-based; conditions: ATCC27853
Protocol: as §1

[7] = tested on: Staphylococcus aureus (ATCC-25923); assay: MIC, micro dilution method; assay type: cell-based; conditions: ATCC25923, S. aureus
Protocol: as §1

[8] = tested on: Group D Streptococci (ATCC-12959); assay: MIC, micro dilution method; assay type: cell-based
Protocol: (§2) The disk diffusion method was used for the preliminary antibacterial evaluation of 1-pyridylimidazo[1,5-a]pyridine derivatives. The MIC50 of these derivatives, showing inhibition in the preliminary tests, were further determined by the microtitre plate technique using micro dilution method. In brief, the bacterial strains (S. aureus, P. vulgaris, Group D Streptococci, Bacillus sp., E. coli, P. aeruginosa and S. morganii)) were grown and diluted to 2×10^5 colony-forming units (CFU)/ml in sodium phosphate buffer (SPB) containing 0.03% Luria–Bertani (LB) broth. The synthesized derivatives were dissolved in DMSO and their serial dilution was performed in 50 µL of LB medium in 96-well microtitre plate to achieve the required concentrations (0.1–10 µg/ml) with bacterial inoculums (5×10^4 CFU per well). DMSO was taken as negative control and Ceftriaxone and clotrimazole were taken as positive control. After incubation at 37°C overnight, the MICs were taken as the lowest inhibitor concentration at which the bacterial growth was inhibited. The average of three values was calculated and that was the MIC for the test material and bacterial strain.
(§3) For the agar plate count method, 25 µL aliquots of bacteria at 1×10^5 CFU/ml in SPB containing 0.03% LB broth were incubated with 25 µL of diluted compounds for 2 h at 37°C. The mixtures of bacteria and compounds were serially diluted 10-fold with SPB and plated on LB plates that were incubated at 37°C overnight. Bacterial colonies were enumerated the following day.

[9] = tested on: Serratia morganii (ATCC- 31665); assay: MIC, micro dilution method; assay type: cell-based; conditions: ATCC31665
Protocol: as §2, §3

[10] = tested on: Bacillus spp. (ATCC-14593); assay: MBC, sub cultivation from MIC plate; assay type: cell-based; conditions: ATCC14593, Bacillus sp.
Protocol: (§4) After having determined the MICs, bacterial strains from the wells of the microtitre plate with no visible bacterial growth were removed for serial sub cultivation of 2 µl into another new microtitre plate containing 100 µl of broth per well and further incubated for 24 h. The lowest concentration with no visible growth was defined as MBC [28], indicating 99.5% killing of the original inoculum. The absorbance of each well was measured at a wavelength of 620 nm by Microplate Manager 4.0 (Bio-Rad laboratories) and compared with a blank. Solvent (DMSO) was used as a negative control. Three replicates were done for each compound and experiment was repeated two times.

[11] = tested on: Escherichia coli (ATCC-25922); assay: MBC, sub cultivation from MIC plate; assay type: cell-based; conditions: ATCC25922, E. coli
Protocol: as §4

[12] = tested on: Group D Streptococci (ATCC-12959); assay: MBC, sub cultivation from MIC plate; assay type: cell-based
Protocol: as §4

[13] = tested on: Proteus vulgaris (ATCC-29905); assay: MBC, sub cultivation from MIC plate; assay type: cell-based; conditions: ATCC29905, P. vulgaris
Protocol: as §4

[14] = tested on: Pseudomonas aeruginosa (ATCC-27853); assay: MBC, sub cultivation from MIC plate; assay type: cell-based
Protocol: as §4

[15] = tested on: Serratia morganii (ATCC- 31665); assay: MBC, sub cultivation from MIC plate; assay type: cell-based
Protocol: as §4

[16] = tested on: Staphylococcus aureus (ATCC-25923); assay: MBC, sub cultivation from MIC plate; assay type: cell-based; conditions: ATCC25923, S. aureus
Protocol: as §4

[17] = tested on: Bacillus spp. (ATCC-14593); assay: MIC, micro dilution method; assay type: cell-based; conditions: ATCC14593; Bacillus sp.; remark: listed apart in the source

For Oc1ccccc1-c1nc(-c2ccccn2)c2ccccn12 [Compound 3a, 1-(2-pyridyl)-3-(2-hydroxyphenyl) imidazo[1,5-a]pyridine], the Ki ([1]; 32°C) was 14.3 µM, the Ki ([1]; 37°C) was 13.7 µM and the Ki ([1]; 42°C) was 11.1 µM. For the same molecule, the Type of inhibition ([1]; Lineweaver–Burk plot) was “Non- Competitive”, the IC50 ([1]; papain) was 13.4 µM and the “ΔG (free energy of binding)” value [2] was −6.86 Kcalmol^−1 and −6.86(±0.30) Kcalmol^−1. For the same molecule, the “ΔS (entropy change)” value [2] was 72.92 (±2.33) Jmol-K^−1, the “ΔH (enthalpy change)” value ([2]; Van't Hoff plot) was −6.2(±0.88) KJmol^−1 and the MIC50 [3] was 0.6 µg/mL (≈ 2.09 µM). It also gave an MIC50 [4] of 0.6 µg/mL (≈ 2.09 µM), an MIC90 [4] of 0.99 µg/mL (≈ 3.45 µM) and an MIC50 [5] of 0.8 µg/mL (≈ 2.78 µM). It also gave an MIC90 [5] of 1.6 µg/mL (≈ 5.57 µM), an MIC50 [6] of 0.6 µg/mL (≈ 2.09 µM) and an MIC90 [6] of 1.09 µg/mL (≈ 3.79 µM). The MIC50 [7] was 0.9 µg/mL (≈ 3.13 µM), the MIC90 [7] was 1.7 µg/mL (≈ 5.92 µM) and the MIC50 [8] was 0.7 µg/mL (≈ 2.44 µM). The MIC90 [8] was 1.3 µg/mL (≈ 4.52 µM), the MIC50 [9] was 0.8 µg/mL (≈ 2.78 µM) and the MIC90 [9] was 1.5 µg/mL (≈ 5.22 µM). For the same molecule, the MBC ([10]; read-out: MBC50) was 1.2 µg/mL (≈ 4.18 µM), the MBC ([10]; read-out: MBC90) was 2.3 µg/mL (≈ 8 µM) and the MBC ([11]; read-out: MBC50) was 1.3 µg/mL (≈ 4.52 µM). It also gave an MBC ([11]; read-out: MBC90) of 2.1 µg/mL (≈ 7.31 µM), an MBC ([12]; read-out: MBC50) of 1.3 µg/mL (≈ 4.52 µM) and an MBC ([12]; read-out: MBC90) of 2.5 µg/mL (≈ 8.7 µM). For the same molecule, the MBC ([13]; read-out: MBC50) was 1.6 µg/mL (≈ 5.57 µM), the MBC ([13]; read-out: MBC90) was 3.1 µg/mL (≈ 10.8 µM) and the MBC ([14]; ATCC27853, read-out: MBC50) was 1.1 µg/mL (≈ 3.83 µM). For the same molecule, the MBC ([14]; ATCC27853, read-out: MBC90) was 1.9 µg/mL (≈ 6.61 µM), the MBC ([15]; ATCC31665, read-out: MBC50) was 1.6 µg/mL (≈ 5.57 µM) and the MBC ([15]; ATCC31665, read-out: MBC90) was 3.1 µg/mL (≈ 10.8 µM). It also gave an MBC ([16]; read-out: MBC50) of 1.8 µg/mL (≈ 6.26 µM), an MBC ([16]; read-out: MBC90) of 3.5 µg/mL (≈ 12.2 µM) and an MIC90 [17] of 1.2 µg/mL (≈ 4.18 µM).
